From ChEMBL document CHEMBL5325485, “Design, synthesis and biological evaluation of salicylanilides as novel allosteric inhibitors of human pancreatic lipase” (Bioorg Med Chem, 2023)

What follows are compounds tested against T1, Pancreatic triacylglycerol lipase (Homo sapiens, UniProt P16233) (assay: Inhibition of Pancreatic lipase (unknown origin) using 4-MUO as fluorescent substrate preincubated for 3 mins followed by substrate addition measured after 20 mins by microplate reader assay). Details: not given.
T1 sequence (P16233 whole entry): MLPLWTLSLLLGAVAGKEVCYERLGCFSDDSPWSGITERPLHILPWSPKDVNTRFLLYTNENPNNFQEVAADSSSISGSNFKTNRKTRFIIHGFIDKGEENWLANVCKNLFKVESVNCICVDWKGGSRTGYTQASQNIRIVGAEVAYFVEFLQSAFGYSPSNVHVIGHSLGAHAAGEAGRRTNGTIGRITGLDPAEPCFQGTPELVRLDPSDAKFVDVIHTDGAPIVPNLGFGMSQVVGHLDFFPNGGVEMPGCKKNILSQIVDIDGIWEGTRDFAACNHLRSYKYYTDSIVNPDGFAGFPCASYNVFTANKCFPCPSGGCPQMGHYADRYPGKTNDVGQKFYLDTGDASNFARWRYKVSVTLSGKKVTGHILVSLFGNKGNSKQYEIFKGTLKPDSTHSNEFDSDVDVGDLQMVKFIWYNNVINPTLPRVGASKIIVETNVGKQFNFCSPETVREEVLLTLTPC

| IC50 | Compound |
| --- | --- |
| 0.49 µM | CC1(C)CC[C@]2(C(=O)O)CC[C@]3(C)C(=CC[C@@H]4[C@@]5(C)CCC(=O)C(C)(C)[C@@H]5CC[C@]43C)[C@@H]2C1 [OLEANONIC ACID] |

Each compound was assayed against T2, Pancreatic triacylglycerol lipase (Homo sapiens) (UniProt P16233) (assay: Binding affinity to human Pancreatic lipase assessed as quenching constant by fluorescence quenching assay based spectrophotometer analysis). Details: filed as negative allosteric modulator.
T2 sequence (whole entry): T1 sequence (P16233 whole entry)

| Kq | Compound |
| --- | --- |
| 3.61 10^14L/mol/s | O=C(Nc1ccc(Oc2ccc(Cl)cc2)c(Cl)c1)c1cc(F)cc(F)c1O |
| 3.39 10^14L/mol/s | O=C(Nc1ccc(Oc2ccc(Cl)cc2)c(Cl)c1)c1cc(Cl)cc(Cl)c1O |

These compounds were tested against T1, Pancreatic triacylglycerol lipase (assay: Negative allosteric modulator activity at human Pancreatic lipase assessed as inhibition of PL-mediated DDAO-ol hydrolysis by measuring inhibition constant using DDAO-ol as fluorescent substrate by Lineweaver-Burk plot analysis). Details: not given.

| Ki | Compound |
| --- | --- |
| 1.67 µM | O=C(Nc1ccc(Oc2ccc(Cl)cc2)c(Cl)c1)c1cc(F)cc(F)c1O |
| 1.7 µM | O=C(Nc1ccc(Oc2ccc(Cl)cc2)c(Cl)c1)c1cc(Cl)cc(Cl)c1O |

What follows are compounds tested against T1, Pancreatic triacylglycerol lipase (assay: Negative allosteric modulator activity at human Pancreatic lipase using DDAO-ol as fluorescent substrate preincubated for 3 mins followed by substrate addition measured after 20 mins by microplate reader assay). Details: not given.

| Compound | IC50 |
| --- | --- |
| COc1cccc(O)c1C(=O)Nc1ccc(Oc2ccc(Cl)cc2)c(Cl)c1 | 26.3 µM |
| O=C(Nc1ccc(Oc2ccccc2)cc1)c1ccccc1O | 19.1 µM |
| CCCOc1ccccc1C(=O)Nc1ccc(Oc2ccc(Cl)cc2)c(Cl)c1 | 18.3 µM |
| O=C(Nc1ccc(Oc2ccc(Cl)cc2)c(Cl)c1)c1ccccc1OC(F)(F)F | 15.8 µM |
| COc1ccc(Oc2ccc(NC(=O)c3ccccc3O)cc2)cc1 | 32.7 µM |
| O=C(Nc1ccc(Oc2ccc(Cl)cc2)c(Cl)c1)c1ccc(Cl)cc1O | 12.4 µM |
| O=C(Nc1ccc(O)cc1)c1ccccc1O [OSALMID] | > 500 µM |
| O=C(Nc1ccc(Oc2ccc(Cl)cc2)c(Cl)c1)c1ccccc1Cl | 15 µM |
| Cc1ccccc1C(=O)Nc1ccc(Oc2ccc(Cl)cc2)c(Cl)c1 | 27.4 µM |
| O=C(Nc1ccc(Oc2ccc(Cl)cc2)c(Cl)c1)c1ccccc1F | 23.7 µM |
| COc1ccccc1C(=O)Nc1ccc(Oc2ccc(Cl)cc2)c(Cl)c1 | 16.7 µM |
| CCCCCCNc1ccc(C(=O)Nc2ccc(Oc3ccc(Cl)cc3)c(Cl)c2)c(O)c1 | 12.4 µM |
| O=C(Nc1ccc(Oc2ccc(Cl)cc2)c(Cl)c1)c1cc(I)cc(I)c1O [RAFOXANIDE] | 2.52 µM |
| O=C(Nc1ccc(Oc2ccc(Cl)cc2)cc1)c1ccccc1O | 20.4 µM |

Other lines, results leading:

| IC50 | Compound |
| --- | --- |
| 12 µM | Cc1ccc(Oc2ccc(NC(=O)c3ccccc3O)cc2)cc1 |
| 11.4 µM | O=C(Nc1ccc(Oc2ccc(F)cc2)c(F)c1)c1ccccc1O |
| 11 µM | O=C(Nc1ccc(Oc2ccc(Cl)cc2)c(Cl)c1)c1ccccc1Br |
| 10.5 µM | O=C(Nc1ccc(Oc2ccc(Cl)cc2)c(Cl)c1)c1ccccc1 |
| 10 µM | COc1ccc(C(=O)Nc2ccc(Oc3ccc(Cl)cc3)c(Cl)c2)c(O)c1 |
| 9.96 µM | O=C(Nc1ccc(Oc2ccccc2)c(Cl)c1)c1ccccc1O |
| 9.24 µM | CC(C)Oc1ccc(Oc2ccc(NC(=O)c3ccccc3O)cc2)cc1 |
| 6.75 µM | O=C(Nc1ccc(Oc2ccc(Cl)cc2)c(Cl)c1)c1ccccc1O |
| 6.27 µM | Nc1ccc(C(=O)Nc2ccc(Oc3ccc(Cl)cc3)c(Cl)c2)c(O)c1 |
| 5.99 µM | CCCNc1ccc(C(=O)Nc2ccc(Oc3ccc(Cl)cc3)c(Cl)c2)c(O)c1 |
| 4.27 µM | O=C(Nc1ccc(Oc2ccc(Cl)cc2)c(Cl)c1)c1ccc(F)cc1O |
| 3.28 µM | CC(C)=CC[C@]12Oc3cc(O)c([C@H]4C=C(C)C[C@H](c5ccc(O)cc5O)[C@H]4C(=O)c4ccc(O)cc4O)c(O)c3C(=O)[C@@]1(O)Oc1cc(O)ccc12 [SANGGENON C] |
| 2.13 µM | O=C(Nc1ccc(Oc2ccc(Cl)cc2)c(Cl)c1)c1cc(Br)cc(Br)c1O |
| 1.86 µM | O=C(Nc1ccc(Oc2ccc(Cl)cc2)c(Cl)c1)c1cc(F)cc(F)c1O |
| 1.63 µM | O=C(Nc1ccc(Oc2ccc(Cl)cc2)c(Cl)c1)c1cc(Cl)cc(Cl)c1O |

What follows are compounds tested against T2, Pancreatic triacylglycerol lipase (Homo sapiens) (assay: Binding affinity to human Pancreatic lipase assessed as Stem-Volmer quenching constant by fluorescence quenching assay based spectrophotometer analysis). Details: filed as negative allosteric modulator.

| KSV | Compound |
| --- | --- |
| 3.61 10^6L/mol | O=C(Nc1ccc(Oc2ccc(Cl)cc2)c(Cl)c1)c1cc(F)cc(F)c1O |
| 3.39 10^6L/mol | O=C(Nc1ccc(Oc2ccc(Cl)cc2)c(Cl)c1)c1cc(Cl)cc(Cl)c1O |
